Laboratory results taken from US5654179A, “Nucleic acid preparation methods” (HRI Research, Inc., priority 1994, dated 1997).
Like-named read-outs stand apart in the source and are kept apart here.

Tests used:
Taq polymerase [1] = test: PCR inhibition, SK38/39 system, 115-mer product on ethidium bromide gel or autoradiograph; assay type: biochemical
Method: (§1) Generally, PCR was carried out using 175-200 μM dNTPS (deoxyribonucleoside 5'-triphosphates) and 0.5 to 1.0 μM primers. Five units/100 μl of Taq polymerase were used. PCR reactions were overlaid with 30-100 μl light mineral oil. A typical PCR cycle for HIV amplification using a Perkin-Elmer Cetus DNA Thermal Cycler (Part No. N8010150) was: denaturation at 95° C. for 30 seconds; annealing at 55° C. for 30 seconds; and extension at 72° C. for 1 minute. PCR cycles were normally carried out in this manner for 35 cycles followed by 7 minutes at 72° C.
In other cases, amplification of HIV sequences was performed using primer pair SK-38 (SEQ ID NO:5) and SK-39 (SEQ ID NO:6) and 115-mer (SEQ ID NO:7) as target to produce a 115-mer product.
Where agarose gel electrophoresis was used, the PCR products were fractionated by electrophoresis through a 3% Nusieve/1% agarose gel in TBE buffer. Electrophoresis was typically carried out in a constant voltage of 8-10 V/cm. Following agarose gel electrophoresis, individual bands were, in most cases, visualized by ethidium bromide staining. This involved staining the agarose gel with 1 μg/ml ethidium bromide in TBE for 30 minutes followed by destaining the agarose gel with TBE for 30 minutes.
The chemical reaction was performed as follows. Two aliquots (30 mg/aliquot) of sodium borohydride (NaBH4) were added at ten minute intervals to 1 ml of 200 μM hematin (Sigma) in 1M Tris (pH 8.0) under argon in the dark. The pH was adjusted to 6.0 between additions. At the end of the reaction (20 minutes) the pH was adjusted to 1.0 and then neutralized to pH 7.0. Six aliquots (5 μl) of the product of the reaction corresponding to different amounts of reacted hematin (37.5 μM, 7.5 μM, 1.5 μM, 0.3 μM, 0.06 μM, 0.012 μM) were added to standard (20 μl) PCR reactions in different tubes using the SK38/39 system (see above). Three standard control reactions were run in separate tubes: i) a no nucleic acid target control; ii) a no primer control; and iii) a positive control (no hematin). In addition, unreacted hematin was added to four different tubes in different amounts (50 μM, 5 μM, 0.5 μM, and 0.05 μM). PCR was carried out for 30 cycles. The PCR products were thereafter electrophoresed (agarose) and visualized with ethidium bromide staining (FIG. 2A, lanes 1-13). The three above-named control reactions were electrophoresed in lanes 1, 2 and 3, respectively. […] The unreacted hematin tubes (lanes 4-7) show no product until hematin is present at a very low concentration (0.05 μM, lane 7), at which point product is evident. […] Indeed, product is evident where 1.5 μM reacted hematin or less was present. […] A score (i.e., % maximum intensity of a positive control) was given to each band. An OD unit of 1.0 corresponds to 100% of maximum intensity. After examination of a plot of the estimated OD units to the concentration of hematin (expressed in the log scale) in these PCR reactions, it is clear that approximately a thirty-fold concentration difference was achieved (reacted to unreacted).
The photochemical reaction was performed as follows. Stock biliverdin (Sigma, 5 mM) was diluted in solution (50 mM Tris pH 7.8) to a final concentration of 200 μM. Two aliquots (300 μl) were then made. One aliquot was left unreacted. The other aliquot was exposed to ultraviolet radiation from an HRI-100 for 16 hours using the industry standard, F8T5BL hot cathode dual bipin lamps. Thereafter, both the unirradiated and irradiated materials were added (5 μl) to standard (20 μl) PCR reactions in different tubes using the SK38/39 system (see above) and 10^9 copies of 115-mer target. Three standard control reactions were run in separate tubes: i) a no nucleic acid target control; ii) a positive control (no biliverdin); and iii) a no Taq control. PCR was carried out for thirty (30) cycles. The PCR products were thereafter electrophoresed (agarose) and visualized with ethidium bromide staining (FIG. 3A, lanes 1-5). […]

[2] = Spectroscopic analysis of photochemical treatment (300-700 nm scan); assay type: physicochemical
Method: In this case 0.5 ml of untreated biliverdin in solution (diluted in 50 mM Tris pH 7.8) to a final concentration corresponding to Apeak =0.7) was scanned using a Beckman Spectrophotometer Model DU-50 between 300 and 700 nm. Photochemically treated (1.5 hours and 16 hours of irradiation) biliverdin was similarly diluted and scanned. […] This corresponds to lane 5 in FIG. 3A where no PCR inhibition was observed.
In this case 0.5 ml of untreated bilirubin in solution (diluted in 50 mM Tris, pH 7.8 to a final concentration corresponding to Apeak =0.8) was scanned using a Beckman Spectrophotometer Model DU-50 between 300 and 700 nm. Photochemically treated (20 minutes, 60 minutes and 2.5 hours of irradiation) bilirubin was similarly diluted and scanned. […] With just 20 minutes of irradiation, this peak is reduced; with just 60 minutes of irradiation, this peak is weak; with 2.5 hours, it is eliminated. The 2.5 hour treatment corresponds to lane 8 in FIG. 4A where no PCR inhibition was observed.

Taq polymerase [3] = settings: cited from earlier work; for inhibitory concentration in PCR: final concentration
[4] = system: DNA ligase from mouse erythroleukemia (MEL) cells; settings: incubation with hemoglobin; cited from earlier work
[5] = Transferrin binding of heme
Description: This is lower than that expected from the molar ratio for transferrin to iron binding of 0.5. Second, there is the question of the central metal ion: the central metal iron was found not to be required for the transferrin-mediated phenomenon of the present invention.

Taq polymerase [6] = test: HIV PCR after inhibitor treatment of whole blood lysate; assay type: biochemical; settings: Mode III, transferrin with sodium bicarbonate
Method: The enzyme was inactivated by heating (95°-100° C., 10 minutes).

Taq polymerase [7] = assay type: biochemical
Method: as §1
In some instances below, amplification of human histocompatibility (HLA) Class II genes was performed using primer pair GH26 (SEQ ID NO:2) and GH27 (SEQ ID NO:3) and human placental DNA to produce a 242-mer product (SEQ ID NO: 4). These primers and other primers are described in PCR Protocols: A Guide To Methods and Applications, Innis, M. A. et al. eds., pp. 261-271 (1990)).
Whole blood was prepared according to Mode III (see FIG. 1). Whole blood samples (100 μl) were lysed with protease K (0.5 mg/ml, 55° C. for 1 hour). The enzyme was inactivated by heating (95°-100°C., 10 minutes). Four sets of reactions were then set up involving the addition of interfering reagent to the protease lysate: 1) transferrin with 10 mM sodium bicarbonate; 2) transferrin with 20 mM sodium bicarbonate; 3) serum albumin with 10 mM sodium bicarbonate; and 4) serum albumin with no cofactor. These reaction were performed at room temperature for thirty minutes using a concentration range for transferrin and serum albumin (10, 25, 50, 75, 100, 150, 200 and 250 μg per 20 μl PCR rxn). PCR was then set up using the primer pair GH26/GH27 to produce a 242-mer product (see above). Two standard control reactions were run in separate tubes: i) a no nucleic acid target control; and 2) a positive control (human placental DNA). Four additional control lanes were run: 1) no inhibitor treatment (two lanes); 2) 10 mM sodium bicarbonate only (one lane); and 3) 50 μg transferrin only (one lane); and 4) transferrin with 10 mM sodium bicarbonate (two lanes). PCR was carried out for 35 cycles. The PCR products were thereafter electrophoresed (agarose) and visualized with ethidium bromide staining. The two above-named control reactions were electrophoresed in lanes 9 and 10 of FIG. 16A, respectively, as well as lanes 17 and 18 of FIG. 16B, respectively. In FIG. 16C, the positive control is in lane 1 and the negative control is in lane 2.
Whole blood was prepared according to Mode III (see FIG. 1). Whole blood samples (20 μl) were lysed with protease K (0.5 mg/ml, 55° C. for 1 hour). The enzyme was inactivated by heating (95°-100° C., 10 minutes). Reactions were then set up involving the addition of bovine transferrin or serum albumin with various cofactors, including bicarbonate ion, azide ion, thiocyanate ion, cyanate ion, oxalate ion, malonate ion, glycinate ion, and thioglycolate ion. These reaction were performed at room temperature for thirty minutes. PCR was then set up using the using primer pair GH26/GH27 to produce a 242-mer product (see above). PCR was carried out for 35 cycles. The PCR products were thereafter electrophoresed (agarose) and visualized with ethidium bromide staining.

[8] = in the presence of an anion (such as HCO3^-); cited from earlier work
Taq polymerase [9] = test: PCR from boiled whole blood with or without transferrin; assay type: biochemical; settings: with transferrin; without transferrin inhibited above 1 μl
Method: Experiment 1. Whole blood (200 μl) was boiled for 10 minutes then briefly centrifuged to precipitate the solid coagulated mass which formed. The supernatant layer was then used directly for PCR amplification (1, 2, 3, 4, or 5 μl), either with or without transferrin. […] An aliquot of 5 μl whole blood processed by Mode III gave a very intense signal, indicating the advantage of the method over the boiling method, which provided no signal at all with a 5 μl aliquot.

[10] = hematin or protoporphyrin only, 500 μM stock

C=CC1=C(C)/C(=C/c2[nH]c(Cc3[nH]c(/C=C4\NC(=O)C(C)=C4C=C)c(C)c3CCC(=O)O)c(CCC(=O)O)c2C)NC1=O [bilirubin]
PCR product (Taq polymerase [1]; 400 μM bilirubin, 2.5 hrs irradiation): product is visible
PCR product (Taq polymerase [1]; 800 μM bilirubin, 3.5 hrs irradiation): product is visible
PCR product (Taq polymerase [1]; 2 mM bilirubin, 4 hrs irradiation): Product is not visible
PCR inhibition (Taq polymerase [1]; unreacted bilirubin, 400 μM, 800 μM and 2 mM): completely inhibited
absorbance peak at approximately 450 nm after irradiation ([2]; 20 minutes of irradiation): reduced
absorbance peak at approximately 450 nm after irradiation ([2]; 60 minutes of irradiation): weak
absorbance peak at approximately 450 nm after irradiation ([2]; 2.5 hours of irradiation): eliminated

C=CC1=C(C)/C(=C/C2=NC(=C\c3[nH]c(/C=C4\NC(=O)C(C)=C4C=C)c(C)c3CCC(=O)O)/C(CCC(=O)O)=C2C)NC1=O [biliverdin]
PCR product (Taq polymerase [1]; biliverdin photochemically treated 16 hrs): product is visible
PCR inhibition (Taq polymerase [1]; biliverdin unirradiated, 5 μl of 200 μM in 20 μl PCR): completely inhibited
absorbance peak at approximately 450 nm after irradiation ([2]; 1.5 hours of irradiation): very weak
absorbance peak at approximately 450 nm after irradiation ([2]; 16 hours of irradiation): eliminated completely

C=CC1=C(C)c2cc3[n-]c(cc4[n-]c(cc5nc(cc1n2)C(C)=C5C=C)c(C)c4CCC(=O)O)c(CCC(=O)O)c3C.O.[Fe+2] [hematin]
inhibition of PCR / Taq polymerase (Taq polymerase [3]): potent inhibitors of Taq polymerase
inhibitory concentration in PCR (Taq polymerase [3]): ≥ 0.8 µM
PCR inhibition (Taq polymerase [1]; [10]): completely inhibited
concentration difference (reacted to unreacted) in PCR inhibition (Taq polymerase [1]; sodium borohydride reduction, visual band intensity): thirty
concentration at which PCR product is evident (Taq polymerase [1]; unreacted hematin, no product at 50, 5, 0.5 μM): 0.05 µM

C=CC1=C(C)c2cc3[nH]c(cc4nc(cc5[nH]c(cc1n2)c(C)c5CCC(=O)O)C(CCC(=O)O)=C4C)c(C)c3C=C [protoporphyrin]
inhibitory concentration in PCR (Taq polymerase [3]): 20 µM
PCR inhibition (Taq polymerase [1]; [10]): completely inhibited

hemoglobin
inhibition of DNA ligase from MEL cells [4]: not inhibitory

transferrin: blood serum component, an iron transport protein
molar ratio of transferrin to heme at which transferrin is most effective in binding heme [5]: < 0.27
amplification specificity (Taq polymerase [6]): improves the specificity of the reaction
PCR product (Taq polymerase [7]; 10 μg per 20 μl PCR rxn, with cofactor): No product is visible
PCR product (Taq polymerase [7]; 25 μg per 20 μl PCR rxn, with cofactor): faint product band
PCR product (Taq polymerase [7]; 50 μg transferrin alone): No product is visible
PCR product (Taq polymerase [7]; 50 μg transferrin with 10 mM cofactor): Strong product bands
PCR product (Taq polymerase [7]; higher concentration of the cofactor (20 mM sodium bicarbonate), lanes 11-18): not as apparent
PCR product (Taq polymerase [7]; higher concentrations (50 to 250 μg, lanes 3-8), with cofactor): Strong product bands
PCR product in presence of protoporphyrin (Taq polymerase [1]): product is visible
capacity to take up iron atoms [8]: 2 iron atoms per molecule
aliquot of boiled whole blood supernatant up to which signal was provided (Taq polymerase [9]): ≤ 3 µL
